Measurements from US20250163104A1, “MACROCYCLIC IMMUNOMODULATORS” (priority 2021, published 2025).
Where a SMILES comes first, the peptide text is derived from it. Bridges are numbered along the chain shown (N, C = ends). [ ]: non-standard residue; d: D form. The star is where a group is joined. Bip = N[C@@H](Cc1ccc(-c2ccccc2)cc1)C(=O)O; Cha = N[C@@H](CC1CCCCC1)C(=O)O; Cit = NC(=O)NCCC[C@H](N)C(=O)O; Carboxymethyl = O=C(O)C*; Orn = NCCC[C@H](N)C(=O)O; Dab = NCC[C@H](N)C(=O)O; Dap = NC[C@H](N)C(=O)O

molecular target: T1, human PD-1 / PD-L1-Ig binding on Jurkat cell line over-expressing human PD-1 (Jurkat-PD-1) (Homo sapiens, UniProt Q15116); test: Jurkat-PD-1 Cell Binding High-Content Screening Assay (CBA); format: cell-based; details: Jurkat-PD-1 cells, PE-labeled PD-L1-Ig 20 nM final; read-out: Jurkat HPD1_PDL1 IC50
T1 construct: expressed in transfected cells; host or cells: Jurkat
T1 sequence (Q15116 25-288): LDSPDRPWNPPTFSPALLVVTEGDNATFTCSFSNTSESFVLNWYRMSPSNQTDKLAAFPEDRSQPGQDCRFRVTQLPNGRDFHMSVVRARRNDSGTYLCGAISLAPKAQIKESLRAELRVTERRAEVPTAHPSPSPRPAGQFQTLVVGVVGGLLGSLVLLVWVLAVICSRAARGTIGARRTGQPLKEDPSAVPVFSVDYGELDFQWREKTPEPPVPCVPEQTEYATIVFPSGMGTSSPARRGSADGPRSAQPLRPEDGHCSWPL
Summary of the method: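 Cell-bound PE-labeled PD-L1-Ig (20 nM final, 1 h) measured by high-content imaging after fixation and Hoechst 33342 counterstain. Compound was applied first for 2 h at 37° C. to Jurkat cells over-expressing human PD-1 in DMEM with 10% FCS.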

**Q.** How did the IC50 turn out when `CC[C@H](C)[C@@H]1NC(=O)[C@H](CCN)NC(=O)[C@@H](CC(C)C)NC(=O)[C@H](CCCN)NC(=O)[C@H](CCCNC(N)=O)NC(=O)[C@H](Cc2ccc(-c3ccccc3)cc2)NC(=O)[C@H](C(C)C)NC(=O)[C@H](Cc2c[nH]c3ccccc23)NC(=O)[C@H](CC(=O)O)NC(=O)[C@H](Cc2ccc(OCC(=O)O)cc2)NC(=O)[C@H](CN)NC(=O)CSC[C@@H](C(=O)N[C@@H](C)C(N)=O)NC(=O)[C@H]([C@@H](C)O)NC(=O)[C@H](C(C)C)NC1=O` [Compound 1317] ({CH2CO}-[Dap]Y(Carboxymethyl)DWV[Bip][Cit][Orn][dL][Dab]IVTCA-NH2; thioether N-14) was run?
**A.** 912 nM

**Q.** For `CC(C)C[C@H]1NC(=O)[C@H](CCCN)NC(=O)[C@H](CCCNC(N)=O)NC(=O)[C@H](Cc2ccc(-c3ccccc3)cc2)NC(=O)[C@H](C(C)C)NC(=O)[C@H](Cc2c[nH]c3ccccc23)NC(=O)[C@H](CC(=O)O)NC(=O)[C@H](Cc2ccc(OCC(=O)O)cc2)NC(=O)[C@H](CN)NC(=O)CSC[C@@H](C(=O)N[C@@H](C)C(N)=O)NC(=O)[C@H]([C@@H](C)O)NC(=O)[C@H]([C@@H](C)O)NC(=O)[C@H](CC2CCCCC2)NC(=O)[C@H](CCN)NC1=O` [Compound 1318] ({CH2CO}-[Dap]Y(Carboxymethyl)DWV[Bip][Cit][Orn][dL][Dab][Cha]TTCA-NH2; thioether N-14), which IC50 is on record?
**A.** 10.6 nM

**Q.** Which IC50 does the source give for `CC(C)C[C@H]1NC(=O)[C@H](CCCN)NC(=O)[C@H](CCCNC(N)=O)NC(=O)[C@H](Cc2ccc(-c3ccccc3)cc2)NC(=O)[C@H](C(C)C)NC(=O)[C@H](Cc2c[nH]c3ccccc23)NC(=O)[C@H](CC(=O)O)NC(=O)[C@H](Cc2ccc(OCC(=O)O)cc2)NC(=O)[C@H](CN)NC(=O)CSC[C@@H](C(=O)N[C@@H](C)C(N)=O)NC(=O)[C@H](C(C)C)NC(=O)[C@H](C(C)C)NC(=O)[C@H](CC2CCCCC2)NC(=O)[C@H](CCN)NC1=O` [Compound 1319] ({CH2CO}-[Dap]Y(Carboxymethyl)DWV[Bip][Cit][Orn][dL][Dab][Cha]VVCA-NH2; thioether N-14) here?
**A.** 49.7 nM

**Q.** Which IC50 does the source give for `CC[C@H](C)[C@@H]1NC(=O)[C@H](C(C)C)NC(=O)[C@H](CC2CCCCC2)NC(=O)[C@H](CCN)NC(=O)[C@@H](CC(C)C)NC(=O)[C@H](CCCN)NC(=O)[C@H](CCCNC(N)=O)NC(=O)[C@H](Cc2ccc(-c3ccccc3)cc2)NC(=O)[C@H](C(C)C)NC(=O)[C@H](Cc2c[nH]c3ccccc23)NC(=O)[C@H](CC(=O)O)NC(=O)[C@H](Cc2ccc(OCC(=O)O)cc2)NC(=O)[C@H](CN)NC(=O)CSC[C@@H](C(=O)N[C@@H](C)C(N)=O)NC1=O` [Compound 1320] ({CH2CO}-[Dap]Y(Carboxymethyl)DWV[Bip][Cit][Orn][dL][Dab][Cha]VICA-NH2; thioether N-14) here?
**A.** 52.7 nM

**Q.** How did the IC50 turn out when `CC(C)C[C@@H]1NC(=O)[C@H](C(C)C)NC(=O)[C@H](CC2CCCCC2)NC(=O)[C@H](CCN)NC(=O)[C@@H](CC(C)C)NC(=O)[C@H](CCCN)NC(=O)[C@H](CCCNC(N)=O)NC(=O)[C@H](Cc2ccc(-c3ccccc3)cc2)NC(=O)[C@H](C(C)C)NC(=O)[C@H](Cc2c[nH]c3ccccc23)NC(=O)[C@H](CC(=O)O)NC(=O)[C@H](Cc2ccc(OCC(=O)O)cc2)NC(=O)[C@H](CN)NC(=O)CSC[C@@H](C(=O)N[C@@H](C)C(N)=O)NC1=O` [Compound 1321] ({CH2CO}-[Dap]Y(Carboxymethyl)DWV[Bip][Cit][Orn][dL][Dab][Cha]VLCA-NH2; thioether N-14) was run?
**A.** 78.6 nM

**Q.** How did the IC50 turn out when `CC(C)C[C@@H]1NC(=O)[C@H](CC2CCCCC2)NC(=O)[C@H](CCN)NC(=O)[C@@H](CC(C)C)NC(=O)[C@H](CCCN)NC(=O)[C@H](CCCNC(N)=O)NC(=O)[C@H](Cc2ccc(-c3ccccc3)cc2)NC(=O)[C@H](C(C)C)NC(=O)[C@H](Cc2c[nH]c3ccccc23)NC(=O)[C@H](CC(=O)O)NC(=O)[C@H](Cc2ccc(OCC(=O)O)cc2)NC(=O)[C@H](CN)NC(=O)CSC[C@@H](C(=O)N[C@@H](C)C(N)=O)NC(=O)[C@H]([C@@H](C)O)NC1=O` [Compound 1322] ({CH2CO}-[Dap]Y(Carboxymethyl)DWV[Bip][Cit][Orn][dL][Dab][Cha]LTCA-NH2; thioether N-14) was run?
**A.** 21.3 nM
